The record followed here is ChEMBL document CHEMBL1955771, “VX-322: a novel dual receptor tyrosine kinase inhibitor for the treatment of acute myelogenous leukemia” (J Med Chem, 2012).

Broadly, the Ki is a dissociation constant, usually derived from enzyme kinetics or from competition with a known ligand. Higher therefore signals lower affinity. The term IC50 denotes the midpoint of a concentration-inhibition curve. Higher therefore signals lower potency. The bioavailability is dose-corrected exposure relative to a reference, in per cent.

Series [1] has as its target Vascular endothelial growth factor receptor 2 (Homo sapiens, UniProt P35968). Nature of the series: Inhibition of KDR.
In series [2] the target is Hepatocyte growth factor receptor (Homo sapiens, UniProt P08581). Nature of the series: Inhibition of cMET.
Series [3] has as its target T1, Tyrosine-protein kinase JAK3 (Homo sapiens, UniProt P52333).
T1 sequence (P52333 whole entry): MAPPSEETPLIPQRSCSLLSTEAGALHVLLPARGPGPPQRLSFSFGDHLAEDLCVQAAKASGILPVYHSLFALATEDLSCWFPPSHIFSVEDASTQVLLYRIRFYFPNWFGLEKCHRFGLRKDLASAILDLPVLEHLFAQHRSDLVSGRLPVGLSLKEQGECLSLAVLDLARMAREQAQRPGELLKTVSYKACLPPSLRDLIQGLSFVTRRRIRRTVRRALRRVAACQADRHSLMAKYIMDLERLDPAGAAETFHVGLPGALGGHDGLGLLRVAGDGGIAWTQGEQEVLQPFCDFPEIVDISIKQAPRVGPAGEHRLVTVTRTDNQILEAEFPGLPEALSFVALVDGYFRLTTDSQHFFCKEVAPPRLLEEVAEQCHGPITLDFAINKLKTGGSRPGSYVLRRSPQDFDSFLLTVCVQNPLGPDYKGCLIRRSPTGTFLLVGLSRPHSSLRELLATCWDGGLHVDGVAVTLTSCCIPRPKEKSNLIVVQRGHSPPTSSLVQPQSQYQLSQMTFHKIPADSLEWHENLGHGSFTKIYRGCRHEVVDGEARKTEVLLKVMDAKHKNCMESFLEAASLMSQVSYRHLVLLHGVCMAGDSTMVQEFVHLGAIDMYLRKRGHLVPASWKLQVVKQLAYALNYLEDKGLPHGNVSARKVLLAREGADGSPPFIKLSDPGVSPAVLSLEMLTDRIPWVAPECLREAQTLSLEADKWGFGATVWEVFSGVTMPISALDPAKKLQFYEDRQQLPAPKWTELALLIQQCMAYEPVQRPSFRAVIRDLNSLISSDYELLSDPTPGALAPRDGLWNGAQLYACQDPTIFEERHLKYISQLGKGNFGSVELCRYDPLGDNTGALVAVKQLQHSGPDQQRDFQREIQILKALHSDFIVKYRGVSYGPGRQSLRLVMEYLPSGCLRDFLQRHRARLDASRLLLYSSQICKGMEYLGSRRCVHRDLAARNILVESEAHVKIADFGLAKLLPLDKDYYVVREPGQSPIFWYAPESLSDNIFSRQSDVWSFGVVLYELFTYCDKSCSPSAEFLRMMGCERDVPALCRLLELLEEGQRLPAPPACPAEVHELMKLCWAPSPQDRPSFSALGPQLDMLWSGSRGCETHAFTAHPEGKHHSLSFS
Nature of the series: Inhibition of Jak3.

Series [4] concerns the target Proto-oncogene tyrosine-protein kinase Src (Homo sapiens, UniProt P12931). As to the kind of experiment: Inhibition of Src.
The subject of series [5] is MV4-11. As to the kind of experiment: Induction of apoptosis in human MV4-11 cells at 100 nM assessed as prenecrotic cells after 24 hrs by annexin V and propidium iodide staining method (reference value: 90.3 %). It counts as functional.
Series [6] deals with MV4-11. As to the kind of experiment: Induction of apoptosis in human MV4-11 cells at 100 nM assessed as prenecrotic cells after 48 hrs by annexin V and propidium iodide staining method (reference value: 91.8 %). In kind it is functional.
The test system of series [7] is Receptor-type tyrosine-protein kinase FLT3 (Homo sapiens), P36888 [UNDEFINED MUTATION]. As to the kind of experiment: (§1) Inhibition of FLT3 ITD mutant autophosphorylation in human MV4-11 cells after 1 hr by immunoblot analysis. In kind it is cell-based. On the technique in general: Immunoblotting shows a protein as a band on a membrane.
Sequence of Receptor-type tyrosine-protein kinase FLT3 (Homo sapiens), P36888 [UNDEFINED MUTATION] (P36888 whole entry, looked up, change not shown): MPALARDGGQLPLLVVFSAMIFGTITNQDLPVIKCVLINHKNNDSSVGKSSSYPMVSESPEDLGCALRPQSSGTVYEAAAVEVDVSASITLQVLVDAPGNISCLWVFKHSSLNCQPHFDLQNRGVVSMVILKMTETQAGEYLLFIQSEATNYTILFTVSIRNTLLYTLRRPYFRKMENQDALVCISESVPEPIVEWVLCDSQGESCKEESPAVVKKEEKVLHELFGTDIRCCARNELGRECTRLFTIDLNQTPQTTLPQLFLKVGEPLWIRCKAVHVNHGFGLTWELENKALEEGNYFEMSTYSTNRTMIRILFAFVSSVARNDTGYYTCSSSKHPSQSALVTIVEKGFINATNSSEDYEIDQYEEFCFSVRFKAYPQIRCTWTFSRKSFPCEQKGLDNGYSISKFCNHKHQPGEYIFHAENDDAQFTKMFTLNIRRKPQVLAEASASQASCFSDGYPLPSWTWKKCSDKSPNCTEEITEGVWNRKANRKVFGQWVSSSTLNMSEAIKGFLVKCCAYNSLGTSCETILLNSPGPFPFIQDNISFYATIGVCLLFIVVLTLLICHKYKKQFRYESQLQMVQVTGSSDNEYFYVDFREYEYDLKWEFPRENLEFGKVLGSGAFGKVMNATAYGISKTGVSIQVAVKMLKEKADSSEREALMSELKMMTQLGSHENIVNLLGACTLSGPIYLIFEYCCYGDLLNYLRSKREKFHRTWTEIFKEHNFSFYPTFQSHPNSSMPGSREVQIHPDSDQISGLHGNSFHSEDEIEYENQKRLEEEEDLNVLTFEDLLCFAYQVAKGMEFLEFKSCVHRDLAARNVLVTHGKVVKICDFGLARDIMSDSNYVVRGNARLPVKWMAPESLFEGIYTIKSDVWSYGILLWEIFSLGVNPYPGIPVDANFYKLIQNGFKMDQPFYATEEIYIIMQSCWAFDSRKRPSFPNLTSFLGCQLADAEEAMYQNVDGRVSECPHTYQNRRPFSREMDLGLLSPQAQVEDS
The target in series [8] is T2, Receptor-type tyrosine-protein kinase FLT3 (Homo sapiens, UniProt P36888, ITD). The description is as §1. In kind it is cell-based.
T2 sequence (P36888 whole entry, looked up, change not shown): as above
In series [9] the target is T2, Receptor-type tyrosine-protein kinase FLT3. Nature of the series: Inhibition of FLT3 ITD mutant mediated ERK 1/2 phosphorylation in human MV4-11 cells by immunoblot analysis. In kind it is cell-based.
Series [10] has as its target Mast/stem cell growth factor receptor Kit (Homo sapiens, UniProt P10721). Nature of the series: Inhibition of c-KIT-mediated ERK 1/2 phosphorylation in human TF1 cells at 4 to 12 nM after 1 hr by immunoblot analysis. In kind it is cell-based, TF-1.
In series [11] the test system is BaF3. Nature of the series: Antitumor activity against mouse BA/F3 cells expressing FLT3-ITD mutant xenografted in BALB/c mouse myeloproliferative model assessed as increase in host survival days at 1 mg/kg, po qd relative to control (reference value: 20 days). In kind it is functional, organism-based. Also noted: dose 1 mg/kg.
Series [12] deals with Mus musculus. As to the kind of experiment: Plasma concentration at steady state in BALB/c mouse xenografted with BA/F3 cells expressing FLT3-ITD mutant at 5 mg/kg, po qd. In kind it is ADME, organism-based, BaF3. The arrangement: dose 5 mg/kg, route oral. The conditions noted are these: in vivo.
Series [13] deals with Mus musculus. As to the kind of experiment: Plasma concentration at steady state in BALB/c mouse xenografted with BA/F3 cells expressing FLT3-ITD mutant at 1 mg/kg, po qd. In kind it is ADME, organism-based, BaF3. Also noted: dose 1 mg/kg, route oral. The conditions noted are these: in vivo.
The subject of series [14] is Mus musculus. Nature of the series: Plasma concentration at steady state in BALB/c mouse xenografted with BA/F3 cells expressing FLT3-ITD mutant at 0.25 mg/kg, po qd. In kind it is ADME, organism-based, BaF3. Also noted: dose 0.25 mg/kg, route oral. The note with it: in vivo.
Series [15] concerns Mus musculus. As to the kind of experiment: Plasma concentration at steady state in BALB/c mouse xenografted with BA/F3 cells expressing FLT3-ITD mutant at 0.05 mg/kg, po qd. It counts as ADME, organism-based, BaF3. Also noted: dose 0.05 mg/kg, route oral. The note with it: in vivo.
Series [16] concerns Mus musculus. As to the kind of experiment: Antitumor activity against mouse BA/F3 cells expressing FLT3-ITD mutant xenografted in BALB/c mouse myeloproliferative model assessed as reduction of phosphorylated Stat5 level in spleen administered qd for 2 days measured after 8 hrs by immunohistochemistry analysis. It counts as functional, organism-based. The conditions noted are these: BaF3.

Series [17] is described as follows: Oral bioavailability in BALB/c mouse. It counts as ADME, organism-based. The note with it: in vivo.
The species named for series [18] is Mus musculus. As to the kind of experiment: Toxicity in BALB/c mouse assessed as change in body weight after 100 days. In kind it is organism-based. The conditions noted are these: in vivo, 2400 h.
Series [19] is filed under the species Mus musculus. Nature of the series: Toxicity in BALB/c mouse assessed as signs of anemia after 100 days. In kind it is organism-based. The note with it: in vivo, 2400 h.
The species entered for series [20] is Mus musculus. Nature of the series: Toxicity in BALB/c mouse assessed as signs of neutropenia after 100 days. In kind it is organism-based. The conditions noted are these: in vivo, 2400 h.
Series [21] deals with BaF3. Nature of the series: Antitumor activity against mouse BA/F3 cells expressing FLT3-ITD mutant xenografted in BALB/c mouse myeloproliferative model assessed as increase in host survival days administered by oral gavage qd relative to control. It counts as functional.
In a further series the test system is Leukemia cell. As to the kind of experiment: Cytotoxicity against human primary leukemia cells isolated from acute myeloid leukemia patient expressing wild type FLT3 assessed as cell viability at 0.0005 to 10 uM after 72 hrs by luciferase assay. It counts as functional, cell-based.
For a further series, the system named is TF-1. As to the kind of experiment: cells. The note with it: Homo sapiens, TF-1, 72 h.
The next series in a line: cells. The note with it: Homo sapiens, Leukemia cell, 72 h.

Sequence of Proto-oncogene tyrosine-protein kinase Src (P12931 2-536 limits assumed): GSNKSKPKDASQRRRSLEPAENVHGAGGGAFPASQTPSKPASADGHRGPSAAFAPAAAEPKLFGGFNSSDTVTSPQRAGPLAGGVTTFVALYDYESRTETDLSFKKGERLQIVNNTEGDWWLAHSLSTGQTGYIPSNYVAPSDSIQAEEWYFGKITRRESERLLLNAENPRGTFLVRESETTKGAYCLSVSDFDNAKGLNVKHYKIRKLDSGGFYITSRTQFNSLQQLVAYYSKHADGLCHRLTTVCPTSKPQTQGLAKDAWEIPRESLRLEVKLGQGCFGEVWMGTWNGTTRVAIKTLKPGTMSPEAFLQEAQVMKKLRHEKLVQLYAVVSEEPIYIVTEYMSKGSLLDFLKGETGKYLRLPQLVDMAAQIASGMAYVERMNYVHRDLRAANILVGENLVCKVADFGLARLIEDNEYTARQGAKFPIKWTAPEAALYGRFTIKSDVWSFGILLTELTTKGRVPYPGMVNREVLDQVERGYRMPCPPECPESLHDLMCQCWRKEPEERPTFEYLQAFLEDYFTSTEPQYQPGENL
Sequence of Mast/stem cell growth factor receptor Kit (P10721 whole entry): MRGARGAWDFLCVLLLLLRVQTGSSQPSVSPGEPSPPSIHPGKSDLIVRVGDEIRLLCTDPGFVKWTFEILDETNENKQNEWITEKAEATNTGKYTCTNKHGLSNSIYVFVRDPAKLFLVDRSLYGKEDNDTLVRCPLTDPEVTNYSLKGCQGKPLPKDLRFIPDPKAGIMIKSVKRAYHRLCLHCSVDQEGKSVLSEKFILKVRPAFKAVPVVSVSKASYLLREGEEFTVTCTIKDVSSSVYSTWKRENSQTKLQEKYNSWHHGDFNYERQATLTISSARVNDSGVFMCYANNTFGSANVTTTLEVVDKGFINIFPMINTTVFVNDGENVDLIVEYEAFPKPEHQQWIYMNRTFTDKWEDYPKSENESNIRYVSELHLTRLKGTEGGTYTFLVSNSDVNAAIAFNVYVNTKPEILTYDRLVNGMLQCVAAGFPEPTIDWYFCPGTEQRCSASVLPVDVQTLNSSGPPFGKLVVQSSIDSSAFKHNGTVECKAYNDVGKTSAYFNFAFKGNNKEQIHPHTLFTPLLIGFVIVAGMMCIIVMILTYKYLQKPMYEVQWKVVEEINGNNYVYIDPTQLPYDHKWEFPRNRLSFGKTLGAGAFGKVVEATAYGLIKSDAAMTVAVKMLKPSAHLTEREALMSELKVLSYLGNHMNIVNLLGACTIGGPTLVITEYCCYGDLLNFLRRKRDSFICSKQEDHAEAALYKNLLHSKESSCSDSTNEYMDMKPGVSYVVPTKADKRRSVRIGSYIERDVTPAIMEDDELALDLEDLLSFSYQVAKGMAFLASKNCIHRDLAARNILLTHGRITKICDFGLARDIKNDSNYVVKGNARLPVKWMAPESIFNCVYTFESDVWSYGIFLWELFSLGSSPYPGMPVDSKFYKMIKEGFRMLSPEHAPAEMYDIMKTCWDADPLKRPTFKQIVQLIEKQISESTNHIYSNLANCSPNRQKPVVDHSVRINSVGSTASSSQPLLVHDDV
Sequence of Vascular endothelial growth factor receptor 2 (P35968 whole entry): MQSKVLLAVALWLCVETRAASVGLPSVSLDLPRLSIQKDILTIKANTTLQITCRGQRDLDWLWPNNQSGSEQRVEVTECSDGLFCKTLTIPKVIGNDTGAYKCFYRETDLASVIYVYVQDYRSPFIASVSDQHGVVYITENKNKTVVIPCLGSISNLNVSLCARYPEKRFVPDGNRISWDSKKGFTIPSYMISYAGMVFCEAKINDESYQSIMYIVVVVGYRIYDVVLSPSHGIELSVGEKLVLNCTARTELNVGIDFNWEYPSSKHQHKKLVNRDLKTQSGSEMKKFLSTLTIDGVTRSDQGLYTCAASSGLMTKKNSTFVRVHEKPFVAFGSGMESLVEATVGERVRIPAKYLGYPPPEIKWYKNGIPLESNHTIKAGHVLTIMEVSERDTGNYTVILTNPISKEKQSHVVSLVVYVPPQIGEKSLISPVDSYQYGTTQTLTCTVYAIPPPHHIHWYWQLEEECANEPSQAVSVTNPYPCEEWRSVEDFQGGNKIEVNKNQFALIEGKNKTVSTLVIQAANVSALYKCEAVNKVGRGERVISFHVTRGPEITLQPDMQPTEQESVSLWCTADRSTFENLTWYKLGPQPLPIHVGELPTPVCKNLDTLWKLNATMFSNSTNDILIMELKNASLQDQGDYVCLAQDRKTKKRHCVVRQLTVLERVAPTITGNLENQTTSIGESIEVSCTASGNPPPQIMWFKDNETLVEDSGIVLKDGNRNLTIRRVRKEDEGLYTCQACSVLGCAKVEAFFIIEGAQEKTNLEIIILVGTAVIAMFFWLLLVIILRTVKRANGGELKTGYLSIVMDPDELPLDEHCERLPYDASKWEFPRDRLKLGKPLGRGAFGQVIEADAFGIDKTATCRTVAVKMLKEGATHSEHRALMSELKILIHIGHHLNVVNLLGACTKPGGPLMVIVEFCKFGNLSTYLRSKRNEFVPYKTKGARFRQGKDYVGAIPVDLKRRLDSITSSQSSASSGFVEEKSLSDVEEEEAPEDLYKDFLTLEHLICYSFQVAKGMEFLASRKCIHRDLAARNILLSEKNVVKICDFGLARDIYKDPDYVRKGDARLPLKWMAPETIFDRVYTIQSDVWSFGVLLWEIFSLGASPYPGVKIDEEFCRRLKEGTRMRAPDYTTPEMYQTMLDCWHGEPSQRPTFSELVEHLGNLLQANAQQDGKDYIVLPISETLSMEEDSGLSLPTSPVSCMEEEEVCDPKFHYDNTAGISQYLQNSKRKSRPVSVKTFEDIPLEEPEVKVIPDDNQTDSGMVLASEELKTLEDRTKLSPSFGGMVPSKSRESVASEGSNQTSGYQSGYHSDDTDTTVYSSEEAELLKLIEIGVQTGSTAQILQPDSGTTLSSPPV
Description for TF-1: Cytotoxicity against human TF1 cells assessed as cell viability after 72 hrs by resazurin dye based fluorescence assay

Take `Nc1nc(Nc2ccc([C@H]3CC[C@H](N4CCOCC4)CC3)cc2)nn1-c1ccccn1`: the Ki amounted to 85 nM in [1], 130 nM in series [2], 280 nM in series [3] and 770 nM in series [4]. Besides, the Activity with MV4-11 [5] was 54.5%; with MV4-11 [6], 28.5%; with Mus musculus [16], “Dose-dependent effect”; in the series filed under Mus musculus [18], “Non-toxic”; in the series listed under Mus musculus [19], “Non-toxic”; in the series listed under Mus musculus [20], “Non-toxic”. For the same compound, the Activity result with BaF3 [21] is “Dose-dependent effect”; in the series on Leukemia cell, above 80%. Moreover, the inhibition entry in [7] is “Dose-dependent effect”. Moreover, the IC50 was 0.4 nM in series [8]; 1.3 nM in series [9]; 4 nM in series [10]; above 4000 nM in the series on TF-1; 12 nM in “cells”. Also, the MSD with BaF3 [11] is 34 days. Further, the Cpss came out at 641 ng/mL with Mus musculus [12], 91 ng/mL in the series on Mus musculus [13], 22 ng/mL in the series with Mus musculus [14] and 4 ng/mL with Mus musculus [15]. In series [17], this compound yielded a bioavailability of 100%.
